Measurements published in ChEMBL document CHEMBL2074377, “Transport of glutathione prostaglandin A conjugates by the multidrug resistance protein 1” (FEBS Lett, 1997).
Values belong to the compound of their own block, whether it stands above or below them.

Experiments:
Format in all cases: functional, cell membranes, Membrane vesicle
[1] = molecular target: MRP1 (Multidrug resistance-associated protein 1) (Homo sapiens, UniProt P33527); assay: TP_TRANSPORTER: inhibition of EA-GS uptake (EA-GS: 0.2 uM, GA1: 10 uM, in the presence of GSH) in membrane vesicles from MRP1-expressing DTY 168 yeast cells; set-up: scale not given: the % may be the effect or the level left; conditions: probe EA-GS (0.2 uM), read-out: Activity
[2] = molecular target: T1, Multidrug resistance-associated protein 1 (Homo sapiens, UniProt P33527); assay: TP_TRANSPORTER: inhibition of EA-GS uptake (EA-GS: 0.2 uM,PGA2: 10 uM, in the presence of GSH) in membrane vesicles from MRP1-expressing DTY 168 yeast cells; set-up: scale not given: the % may be the effect or the level left; conditions: dty 168, 10 µM
[3] = molecular target: T1, Multidrug resistance-associated protein 1; assay: TP_TRANSPORTER: uptake in membrane vesicles from MRP1-expressing DTY 168 yeast cells

T1 sequence (P33527 whole entry): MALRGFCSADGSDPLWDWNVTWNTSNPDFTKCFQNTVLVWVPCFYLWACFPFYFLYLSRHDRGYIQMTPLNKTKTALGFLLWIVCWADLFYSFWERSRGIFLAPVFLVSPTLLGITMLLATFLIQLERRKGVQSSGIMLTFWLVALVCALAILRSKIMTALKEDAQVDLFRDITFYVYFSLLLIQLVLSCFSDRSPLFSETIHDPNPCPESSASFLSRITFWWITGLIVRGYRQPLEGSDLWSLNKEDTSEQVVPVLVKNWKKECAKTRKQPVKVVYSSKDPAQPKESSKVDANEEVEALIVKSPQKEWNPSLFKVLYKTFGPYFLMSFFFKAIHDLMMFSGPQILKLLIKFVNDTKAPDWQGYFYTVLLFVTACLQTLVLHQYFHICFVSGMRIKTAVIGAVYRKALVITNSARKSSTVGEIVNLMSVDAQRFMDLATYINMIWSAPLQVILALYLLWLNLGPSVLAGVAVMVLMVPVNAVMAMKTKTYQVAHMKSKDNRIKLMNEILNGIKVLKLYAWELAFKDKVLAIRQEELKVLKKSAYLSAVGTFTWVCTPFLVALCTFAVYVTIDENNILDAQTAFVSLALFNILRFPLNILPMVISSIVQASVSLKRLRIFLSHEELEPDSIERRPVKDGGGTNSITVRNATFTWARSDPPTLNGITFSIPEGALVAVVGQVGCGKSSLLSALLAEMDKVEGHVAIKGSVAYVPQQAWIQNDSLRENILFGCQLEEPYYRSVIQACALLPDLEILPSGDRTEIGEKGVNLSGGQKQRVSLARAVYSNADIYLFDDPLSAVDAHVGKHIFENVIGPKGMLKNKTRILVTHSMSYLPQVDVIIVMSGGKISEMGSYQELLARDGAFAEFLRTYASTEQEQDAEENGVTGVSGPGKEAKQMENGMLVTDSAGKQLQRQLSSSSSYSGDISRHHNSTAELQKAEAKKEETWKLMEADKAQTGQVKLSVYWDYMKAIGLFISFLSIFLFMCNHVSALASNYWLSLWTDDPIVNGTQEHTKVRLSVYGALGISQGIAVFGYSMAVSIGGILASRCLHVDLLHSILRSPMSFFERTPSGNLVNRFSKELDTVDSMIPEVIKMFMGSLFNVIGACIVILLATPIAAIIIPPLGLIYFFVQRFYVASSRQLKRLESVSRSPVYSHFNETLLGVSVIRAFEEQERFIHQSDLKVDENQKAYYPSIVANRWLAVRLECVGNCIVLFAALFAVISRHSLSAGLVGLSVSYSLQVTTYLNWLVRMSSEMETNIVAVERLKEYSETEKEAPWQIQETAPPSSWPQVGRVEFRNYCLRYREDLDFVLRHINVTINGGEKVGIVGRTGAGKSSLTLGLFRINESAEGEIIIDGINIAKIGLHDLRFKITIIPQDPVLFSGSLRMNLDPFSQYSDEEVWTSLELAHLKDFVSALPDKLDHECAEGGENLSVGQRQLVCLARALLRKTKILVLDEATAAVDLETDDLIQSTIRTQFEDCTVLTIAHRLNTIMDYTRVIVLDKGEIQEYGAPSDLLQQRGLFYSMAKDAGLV
Sequence of MRP1 (Multidrug resistance-associated protein 1) (P33527 whole entry): as above

activity at 10 µM [1]: 15%
Compound: CCCCC[C@H](O)/C=C/[C@H]1C=CC(=O)[C@@H]1CCCCCCC(=O)O [PROSTAGLANDIN A1]

Activity [2]: 9%
Compound: CCCCC[C@H](O)/C=C/[C@H]1C=CC(=O)[C@@H]1C/C=C\CCCC(=O)O [PROSTAGLANDIN A2]

Km [3]: substrate [Km=0.8-1uM]
Compound: CCCCC[C@H](O)/C=C/[C@H]1C(SC[C@@H](NC(=O)CC[C@@H](N)C(=O)O)C(=O)NCC(=O)O)CC(=O)[C@H]1C/C=C\CCCC(=O)O (stereo partly drawn)
